From ChEMBL document CHEMBL1151471, “Vancomycin-resistant Staphylococcus aureus isolates associated with Inc18-like vanA plasmids in Michigan” (2008)
Converted amounts (≈) assume the structure as drawn.

How the values were obtained:
Type in all cases: functional
Enterococcus faecalis [1] = test: Antibacterial activity against Enterococcus faecalis AIS2007003 isolated from patients rectum by broth microdilution method
Enterococcus faecalis [2] = test: Antibacterial activity against Enterococcus faecalis HIP14333 isolated from patients rectum by broth microdilution method
Enterococcus faecalis [3] = test: Antibacterial activity against Enterococcus faecalis HIP15179 coisolated with vancomycin-resistant Staphylococcus aureus by broth microdilution method
Enterococcus avium = test: Antibacterial activity against Enterococcus avium AIS2007004 isolated from patients rectum by broth microdilution method
Staphylococcus aureus [4] = test: Antibacterial activity against vancomycin-resistant Staphylococcus aureus HIP14300 isolated from patients foot wound by broth microdilution method
Staphylococcus aureus [5] = test: Antibacterial activity against vancomycin-resistant Staphylococcus aureus HIP15178 isolated from patients surgical wound by broth microdilution method
Staphylococcus aureus [6] = test: Antibacterial activity against vancomycin-resistant Staphylococcus aureus AIS2006032 isolated from patients foot wound by broth microdilution method
Staphylococcus aureus [7] = test: Antibacterial activity against vancomycin-resistant Staphylococcus aureus AIS2006049 isolated from patients arm wound by broth microdilution method

## CN[C@@H]1[C@H](O[C@H]2[C@H](O[C@H]3[C@H](O)[C@@H](O)[C@H](N=C(N)N)[C@@H](O)[C@@H]3N=C(N)N)O[C@@H](C)[C@]2(O)C=O)O[C@@H](CO)[C@H](O)[C@H]1O [STREPTOMYCIN]
Enterococcus faecalis [1]
  MIC: > 1000 µg/mL
Enterococcus faecalis [2]
  MIC: ≤ 1000 µg/mL
Enterococcus faecalis [3]
  MIC: > 1000 µg/mL
Enterococcus avium
  MIC: ≤ 1000 µg/mL

## CCC[C@@H]1C[C@@H](C(=O)N[C@@H]([C@H]2O[C@H](SC)[C@H](O)[C@@H](O)[C@H]2O)[C@H](C)Cl)N(C)C1 [CLINDAMYCIN]
Staphylococcus aureus [4]
  MIC: > 16 µg/mL
Staphylococcus aureus [5]
  MIC: > 16 µg/mL
Staphylococcus aureus [6]
  MIC: > 16 µg/mL
Staphylococcus aureus [7]
  MIC: > 16 µg/mL

## CCCCCCCCCC(=O)N[C@@H](Cc1c[nH]c2ccccc12)C(=O)N[C@H](CC(N)=O)C(=O)N[C@@H](CC(=O)O)C(=O)N[C@@H]1C(=O)NCC(=O)N[C@@H](CCCN)C(=O)N[C@@H](CC(=O)O)C(=O)N[C@H](C)C(=O)N[C@@H](CC(=O)O)C(=O)NCC(=O)N[C@H](CO)C(=O)N[C@@H]([C@H](C)CC(=O)O)C(=O)N[C@@H](CC(=O)c2ccccc2N)C(=O)O[C@@H]1C
Staphylococcus aureus [4]
  MIC: ≤ 0.5 µg/mL
Enterococcus faecalis [1]
  MIC: 2 µg/mL (≈ 1.23 µM)
Staphylococcus aureus [5]
  MIC: ≤ 0.5 µg/mL
Enterococcus faecalis [3]
  MIC: 1 µg/mL (≈ 0.617 µM)
Staphylococcus aureus [6]
  MIC: 1 µg/mL (≈ 0.617 µM)
Enterococcus avium
  MIC: 1 µg/mL (≈ 0.617 µM)
Staphylococcus aureus [7]
  MIC: 2 µg/mL (≈ 1.23 µM)

## CC[C@H]1OC(=O)[C@H](C)[C@@H](O[C@H]2C[C@@](C)(OC)[C@@H](O)[C@H](C)O2)[C@H](C)[C@@H](O[C@@H]2O[C@H](C)C[C@H](N(C)C)[C@H]2O)[C@](C)(O)C[C@@H](C)C(=O)[C@H](C)[C@@H](O)[C@]1(C)O [ERYTHROMYCIN]
Staphylococcus aureus [4]
  MIC: > 8 µg/mL
Enterococcus faecalis [1]
  MIC: > 8 µg/mL
Enterococcus faecalis [2]
  MIC: > 8 µg/mL
Staphylococcus aureus [5]
  MIC: > 8 µg/mL
Enterococcus faecalis [3]
  MIC: > 8 µg/mL
Staphylococcus aureus [6]
  MIC: > 8 µg/mL
Enterococcus avium
  MIC: > 8 µg/mL
Staphylococcus aureus [7]
  MIC: > 8 µg/mL

## CN[C@H](CC(C)C)C(=O)N[C@H]1C(=O)N[C@@H](CC(N)=O)C(=O)N[C@H]2C(=O)N[C@H]3C(=O)N[C@H](C(=O)N[C@H](C(=O)O)c4cc(O)cc(O)c4-c4cc3ccc4O)[C@H](O)c3ccc(c(Cl)c3)Oc3cc2cc(c3O[C@@H]2O[C@H](CO)[C@@H](O)[C@H](O)[C@H]2O[C@H]2C[C@](C)(N)[C@H](O)[C@H](C)O2)Oc2ccc(cc2Cl)[C@H]1O [VANCOMYCIN]
Staphylococcus aureus [4]
  MIC: 256 µg/mL (≈ 177 µM)
Enterococcus faecalis [1]
  MIC: > 512 µg/mL
Enterococcus faecalis [2]
  MIC: 1020 µg/mL (≈ 707 µM)
Staphylococcus aureus [5]
  MIC: 512 µg/mL (≈ 353 µM)
Enterococcus faecalis [3]
  MIC: 512 µg/mL (≈ 353 µM)
Staphylococcus aureus [6]
  MIC: 1020 µg/mL (≈ 707 µM)
Enterococcus avium
  MIC: 256 µg/mL (≈ 177 µM)
Staphylococcus aureus [7]
  MIC: 512 µg/mL (≈ 353 µM)

## GENTAMICIN
Staphylococcus aureus [4]
  MIC: < 2 µg/mL
Enterococcus faecalis [1]
  MIC: > 500 µg/mL
Enterococcus faecalis [2]
  MIC: > 500 µg/mL
Staphylococcus aureus [5]
  MIC: < 2 µg/mL
Enterococcus faecalis [3]
  MIC: > 500 µg/mL
Staphylococcus aureus [6]
  MIC: < 2 µg/mL
Enterococcus avium
  MIC: > 500 µg/mL
Staphylococcus aureus [7]
  MIC: < 2 µg/mL

## CC(=O)NC[C@H]1CN(c2ccc(N3CCOCC3)c(F)c2)C(=O)O1 [LINEZOLID]
Enterococcus avium
  MIC: 2 µg/mL (≈ 5.93 µM)

## Cc1onc(-c2ccccc2)c1C(=O)N[C@@H]1C(=O)N2[C@@H]1SC(C)(C)[C@@H]2C(=O)O [OXACILLIN]
Staphylococcus aureus [4]
  MIC: > 16 µg/mL
Staphylococcus aureus [5]
  MIC: > 16 µg/mL
Staphylococcus aureus [6]
  MIC: > 16 µg/mL
Staphylococcus aureus [7]
  MIC: > 16 µg/mL

## C[C@H]1COc2c(N3CCN(C)CC3)c(F)cc3c(=O)c(C(=O)O)cn1c23.C[C@H]1COc2c(N3CCN(C)CC3)c(F)cc3c(=O)c(C(=O)O)cn1c23.O [LEVOFLOXACIN]
Staphylococcus aureus [4]
  MIC: > 16 µg/mL
Enterococcus faecalis [1]
  MIC: > 8 µg/mL
Enterococcus faecalis [2]
  MIC: > 8 µg/mL
Staphylococcus aureus [5]
  MIC: > 16 µg/mL
Enterococcus faecalis [3]
  MIC: 8 µg/mL
Staphylococcus aureus [6]
  MIC: > 16 µg/mL
Enterococcus avium
  MIC: 8 µg/mL
Staphylococcus aureus [7]
  MIC: 8 µg/mL

## CO[C@H]1/C=C/O[C@@]2(C)Oc3c(C)c(O)c4c(O)c(c(/C=N/N5CCN(C)CC5)c(O)c4c3C2=O)NC(=O)/C(C)=C\C=C\[C@H](C)[C@H](O)[C@@H](C)[C@@H](O)[C@@H](C)[C@H](OC(C)=O)[C@@H]1C [RIFAMPIN]
Staphylococcus aureus [4]
  MIC: ≤ 0.5 µg/mL
Enterococcus faecalis [1]
  MIC: 1 µg/mL (≈ 1.22 µM)
Enterococcus faecalis [2]
  MIC: 1 µg/mL (≈ 1.22 µM)
Staphylococcus aureus [5]
  MIC: ≤ 0.5 µg/mL
Enterococcus faecalis [3]
  MIC: 2 µg/mL (≈ 2.43 µM)
Staphylococcus aureus [6]
  MIC: ≤ 0.5 µg/mL
Enterococcus avium
  MIC: 1 µg/mL (≈ 1.22 µM)
Staphylococcus aureus [7]
  MIC: ≤ 0.5 µg/mL

## C[C@H]1c2cccc(O)c2C(=O)C2=C(O)[C@]3(O)C(=O)C(C(N)=O)=C(O)[C@@H](N(C)C)[C@@H]3[C@@H](O)[C@@H]21.O [DOXYCYCLINE]
Staphylococcus aureus [4]
  MIC: ≤ 0.25 µg/mL
Enterococcus faecalis [1]
  MIC: 4 µg/mL
Enterococcus faecalis [2]
  MIC: 8 µg/mL
Staphylococcus aureus [5]
  MIC: ≤ 0.5 µg/mL
Enterococcus faecalis [3]
  MIC: ≤ 2 µg/mL
Staphylococcus aureus [6]
  MIC: 1 µg/mL
Enterococcus avium
  MIC: 8 µg/mL
Staphylococcus aureus [7]
  MIC: ≤ 1 µg/mL
